The NIST ThermoML archive (doi:10.1021/acs.jced.6b00121)

Assay: xn = mol fraction of the nth substance listed
Details: 100 kPa, Liquid; for mass density: Vibrating tube method; for viscosity: Falling or rolling sphere viscometry

CCCCCCCCCCC [undecane] + CCCCCCO
Details	mass density [kg/m3]	viscosity [mPa·s]
323.15 K, x1 = 0.1011	783.63	–
323.15 K, x1 = 0.1989	772.51	–
323.15 K, x1 = 0.2998	762.31	–
323.15 K, x1 = 0.4001	753.47	–
323.15 K, x1 = 0.4994	745.77	–
323.15 K, x1 = 0.6004	738.74	–
323.15 K, x1 = 0.6989	732.65	–
323.15 K, x1 = 0.8001	727.06	–
323.15 K, x1 = 0.8991	722.24	–
323.15 K, x1 = 1	718.11	–
328.15 K, x1 = 0.1011	779.82	1.612
328.15 K, x1 = 0.1989	768.66	1.374
328.15 K, x1 = 0.2998	758.44	1.18
328.15 K, x1 = 0.4001	749.58	1.039
328.15 K, x1 = 0.4994	741.89	0.93
328.15 K, x1 = 0.6004	734.86	0.862
328.15 K, x1 = 0.6989	728.77	0.793
328.15 K, x1 = 0.8001	723.2	0.747
328.15 K, x1 = 0.8991	718.41	0.724
328.15 K, x1 = 1	714.39	0.692
333.15 K, x1 = 0.1011	775.97	1.466
333.15 K, x1 = 0.1989	764.78	1.24
333.15 K, x1 = 0.2998	754.53	1.073
333.15 K, x1 = 0.4001	745.66	0.955
333.15 K, x1 = 0.4994	737.97	0.859
333.15 K, x1 = 0.6004	730.93	0.801
333.15 K, x1 = 0.6989	724.87	0.738
333.15 K, x1 = 0.8001	719.31	0.699
333.15 K, x1 = 0.8991	714.55	0.681
333.15 K, x1 = 1	710.68	0.651
338.15 K, x1 = 0.1011	772.08	1.318
338.15 K, x1 = 0.1989	760.84	1.124
338.15 K, x1 = 0.2998	750.57	0.982
338.15 K, x1 = 0.4001	741.7	0.878
338.15 K, x1 = 0.4994	734.01	0.796
338.15 K, x1 = 0.6004	726.99	0.744
338.15 K, x1 = 0.6989	720.93	0.691
338.15 K, x1 = 0.8001	715.39	0.656
338.15 K, x1 = 0.8991	710.68	0.641
338.15 K, x1 = 1	706.95	0.615
343.15 K, x1 = 0.1011	768.13	1.189
343.15 K, x1 = 0.1989	756.86	1.025
343.15 K, x1 = 0.2998	746.58	0.901
343.15 K, x1 = 0.4001	737.7	0.811
343.15 K, x1 = 0.4994	730.01	0.739
343.15 K, x1 = 0.6004	723	0.695
343.15 K, x1 = 0.6989	716.95	0.647
343.15 K, x1 = 0.8001	711.44	0.616
343.15 K, x1 = 0.8991	706.79	0.604
343.15 K, x1 = 1	703.22	0.58
348.15 K, x1 = 0.1011	764.12	1.054
348.15 K, x1 = 0.1989	752.83	0.934
348.15 K, x1 = 0.2998	742.54	0.828
348.15 K, x1 = 0.4001	733.66	0.75
348.15 K, x1 = 0.4994	725.98	0.687
348.15 K, x1 = 0.6004	718.97	0.652
348.15 K, x1 = 0.6989	712.94	0.607
348.15 K, x1 = 0.8001	707.47	0.58
348.15 K, x1 = 0.8991	702.87	0.571
348.15 K, x1 = 1	699.47	0.549
353.15 K, x1 = 0.1011	760.07	0.981
353.15 K, x1 = 0.1989	748.76	0.855
353.15 K, x1 = 0.2998	738.45	0.765
353.15 K, x1 = 0.4001	729.57	0.696
353.15 K, x1 = 0.4994	721.9	0.642
353.15 K, x1 = 0.6004	714.9	0.611
353.15 K, x1 = 0.6989	708.9	0.572
353.15 K, x1 = 0.8001	703.47	0.546
353.15 K, x1 = 0.8991	698.94	0.54
353.15 K, x1 = 1	695.72	0.522
358.15 K, x1 = 0.1011	755.96	0.895
358.15 K, x1 = 0.1989	744.62	0.787
358.15 K, x1 = 0.2998	734.31	0.707
358.15 K, x1 = 0.4001	725.43	0.649
358.15 K, x1 = 0.4994	717.76	0.6
358.15 K, x1 = 0.6004	710.79	0.573
358.15 K, x1 = 0.6989	704.82	0.54
358.15 K, x1 = 0.8001	699.43	0.516
358.15 K, x1 = 0.8991	694.99	0.512
358.15 K, x1 = 1	691.96	0.497
363.15 K, x1 = 0.1011	751.78	0.82
363.15 K, x1 = 0.1989	740.43	0.726
363.15 K, x1 = 0.2998	730.12	0.657
363.15 K, x1 = 0.4001	721.24	0.605
363.15 K, x1 = 0.4994	713.59	0.562
363.15 K, x1 = 0.6004	706.64	0.54
363.15 K, x1 = 0.6989	700.7	0.512
363.15 K, x1 = 0.8001	695.37	0.49
363.15 K, x1 = 0.8991	691.02	0.487
363.15 K, x1 = 1	688.18	0.475
